Reference: patent US4322439A, “ω-[2-(N-Lower alkyl-benzamido)-phenyl]-alkanoic acids, their use, and medicaments containing them” (BYK Gulden Lomberg Chemische Fabrik GmbH, priority 1978, dated 1982)
Read-outs that look alike come from different tables or passages of the source.

Columns and labels:
[1] = tested on: fasting, metabolically healthy rats; experiment: Blood glucose determination after single oral application (fasting, metabolically healthy rats); format: in vivo, Sprague-Dawley rats; details: for ED50: read-out: B: ED50 (dose which effects a lowering of the blood glucose concentration by at least 15% in 50% of the animals); for A: Change of the blood glucose concentration (maximal, with reference to control animals): single oral administration 0.6 to 1.0 mmole/kg, maximal change within 24 hours
Procedure: In Table I there are reproduced investigations of the influence of representatives of the compounds according to the invention on the blood glucose concentration of fasting, metabolically healthy rats after single oral administration of substance of 0.6 to 1.0 mmole/kg body weight within 24 hours. Column A states in each case the maximal lowering in % with reference to the control group within 24 hours after application of the compounds.
1. Blood Glucose Determination After Single Oral Application
Young male Sprague-Dawley rats (body weight 160-200 g) are used. The animals are kept in makralon cages with up to 5 animals per cage [room-temperature 23° C., humidity of the atmosphere 55%, fixed day/night rhythm (12/12 h), rat standard diet Altromin^R ].
Food is withdrawn from the animals 20-22 hours before the taking of the 1st blood sample. Water uptake occurs ad libitum. Blood samples are taken at intervals of 0, 2, 6 and 24 hours through puncture from the postorbital plexus.
After deproteinisation with perchloric acid, the blood glucose determination is effected by means of the enzymatic HK/G-6-POH method according to R. Richterich [Klinische Chemie, Theorie und Praxis, 3rd Edition, 1971, S. Karger Verlag, Zuerich-Basle, page 275].
For comparison, in each case a control group treated with pure solvent is also investigated.

[2] = tested on: isolatedly perfused rat liver; experiment: Inhibition of glucose formation (from lactate and pyruvate) on the isolatedly perfused rat liver; design: species or system Sprague-Dawley rats; details: for D: ID50 (inhibition of the glucose formation from lactate and pyruvate by 50%): isolatedly perfused rat liver, concentration in the perfusate
Procedure: The values in column D show the concentrations (ID50 mmol/l) of the substances in the perfusate, which bring about on the isolatedly perfused rat liver an inhibition of the glucose formation from lactat and pyruvat by 50%.
2. Inhibition of Glucose Formation on the Isolatedly Perfused Rat Liver
Young male Sprague-Dawley rats (160-200 g) are used. The animals are kept as described under 1.
Food is withdrawn from the animals 20-22 hours before the operation. Water uptake occurs ad libitum. Operation and perfusion of the liver are effected according to the technique of R. Scholz et al. [Eur. J. Biochem. 38 (1973) 64-72]. As perfusion liquids, Krebs-Henseleit biocarbonate buffer (pH 7.4) is used which is saturated with an oxygen/carbon dioxide mixture (95/5) and contains 1.6 mmoles/liter L-lactates and 0.2 mmole/liter pyruvate. The perfusion liquid is pumped into the liver via a cannula introduced into the portal vein. The perfusion liquid emerging is collected via a cannula introduced into the vena cava and then taken past an oxygen electrode. The liver is perfused for about 2 hours. The test compounds are infused from the 32nd to 80th minute of the perfusion, with increasing concentrations (0.01, 0.03, 0.10 mmol/l).
Samples of the emerged perfusion liquid are collected at one-minute intervals and analysed for glucose, lactate and pyruvate according to enzymatic standard methods. The oxygen content is continuously determined by means of a platinum electrode. The check constants (ID50) stated in Table I refer to the state which exists before and after addition of the compounds; the changes caused alone through lactate and pyruvate were set at 100%.

in vivo = details: mouse
Procedure: 3. Determination of the toxicity
The toxicity investigations were carried out on female NMRI mice (body weight 22-26 g). The animals (5 animals per dose) receive, 18 hours before the treatment, the food (Altromin®) reduced to 50 g/50 animals and water ad libitum. Various doses of the substances are administered per os or intraperitoneal (volume 20 ml/kg). The duration of observation is 7 days. The DL50, i.e. the dose at which 50% of the animals die, is determined graphically from the dose effect curve.

[3] = rat, single oral administration, with reference to control group
[4] = ip, i.p., read-out: C: LD50 (i.p.)

SMILES	ED50 ([1]; Rattus norvegicus, po)	A: Change of the blood glucose concentration (maximal, with reference to control animals) ([1]; rat)	inhibition of the glucose formation from lactate and pyruvate in the liver (in words) [2]	D: ID50 (inhibition of the glucose formation from lactate and pyruvate by 50%) [2]	ED50 [1, 3]	LD50 at 168 h (in vivo; po, per os, read-out: C: LD50)	LD50 at 168 h (in vivo; [4])
CCCCNC(=N)NC(=N)N [Serial No. 1, buformin, reference compound]	227 mg/kg	-20%	no inhibition	ineffective	–	–	–
[H]/N=C(/N)N/C(=N/[H])NCCc1ccccc1 [Serial No. 2, phenformin]	–	-2%	no inhibition	ineffective	–	–	–
CN(C(=O)c1ccccc1)c1ccccc1CCCC(=O)O [Serial No. 3, 4-[2-(N-methylbenzamido)-phenyl]-butyric acid]	–	-27%	–	–	205 mg/kg	–	–
CN(C(=O)c1ccc(Cl)cc1)c1ccccc1CCC(=O)O [Serial No. 4, 3-[2-(N-methyl-4-chlorobenzamido)-phenyl]-propionic acid]	–	-16%	–	–	426 mg/kg	–	–
CN(C(=O)c1ccc(Cl)c(Cl)c1)c1ccccc1CCC(=O)O [Serial No. 5, 3-[2-(N-methyl-3,4-dichlorobenzamido)-phenyl]-propionic acid]	–	-11%	–	–	363 mg/kg	1100 mg/kg	–
CN(C(=O)c1ccccc1)c1ccccc1CCC(=O)O [Serial No. 6, 3-[2-(N-methylbenzamido)-phenyl]-propionic acid]	–	-26%	–	–	221 mg/kg	970 mg/kg	–
CN(C(=O)c1ccc(Cl)c(Cl)c1)c1ccc(Cl)cc1CCC(=O)O [Serial No. 7, 3-[5-chloro-2-(N-methyl-3,4-dichlorobenzamido)-phenyl]-propionic acid]	–	-15%	–	–	–	> 1000 mg/kg	–
CN(C(=O)c1cccc(C(F)(F)F)c1)c1ccc(Cl)cc1CCC(=O)O [Serial No. 8, 3-[5-chloro-2-(N-methyl-3-trifluoromethylbenzamido)-phenyl]-propionic acid]	–	-26%	–	–	185 mg/kg	> 1000 mg/kg	–
CN(C(=O)c1ccc(Cl)cc1)c1ccccc1CCCC(=O)O [Serial No. 9, 4-[2-(N-methyl-4-chlorobenzamido)-phenyl]-butyric acid]	–	-24%	–	–	103 mg/kg	> 1000 mg/kg	–
CN(C(=O)c1ccc(Cl)c(Cl)c1)c1ccccc1CCCC(=O)O [Serial No. 10, 4-[2-(N-methyl-3,4-dichlorobenzamido)-phenyl]-butyric acid]	–	-17%	–	–	198 mg/kg	–	250 mg/kg
CN(C(=O)c1ccc(Cl)cc1Cl)c1ccccc1CCCC(=O)O [Serial No. 11, 4-[2-(N-methyl-2,4-dichlorobenzamido)-phenyl]-butyric acid]	–	-17%	–	–	245 mg/kg	> 1000 mg/kg	–
CN(C(=O)c1cccc(C(F)(F)F)c1)c1ccccc1CCCC(=O)O [Serial No. 12, 4-[2-(N-methyl-3-trifluoromethylbenzamido)-phenyl]-butyric acid]	–	-20%	–	–	278 mg/kg	–	150 mg/kg
COc1cccc(N(C)C(=O)c2ccc(Cl)cc2)c1CCCC(=O)O [Serial No. 13, 4-[6-methoxy-2-(N-methyl-4-chlorobenzamido)-phenyl]-butyric acid]	–	-14%	–	–	> 500 mg/kg	–	–
COc1ccc(N(C)C(=O)c2ccc(Cl)c(Cl)c2)c(CCCC(=O)O)c1 [Serial No. 14, 4-[5-methoxy-2-(N-methyl-3,4-dichloro-benzamido)-phenyl]-butyric acid]	–	-21%	–	–	–	–	–
CN(C(=O)c1ccc(Cl)c(Cl)c1)c1ccccc1CCCCC(=O)O [Serial No. 15, 5-[2-(N-methyl-3,4-dichlorobenzamido)-phenyl]-valeric acid]	–	-5%	–	–	> 700 mg/kg	–	–
